Patent publication US20190367516A1 (Bayer Pharma Aktiengesellschaft, priority 2015, published 2019)
pEC50: −log10 of the molar value. Where two headings read alike, the source gives them in different places.

Experiments:
human M2 receptor [1] = biological target: T1, human M2 receptor (Homo sapiens, UniProt P08172); conditions: for Emax: read-out: Efficiency
T1 sequence (P08172 1-466): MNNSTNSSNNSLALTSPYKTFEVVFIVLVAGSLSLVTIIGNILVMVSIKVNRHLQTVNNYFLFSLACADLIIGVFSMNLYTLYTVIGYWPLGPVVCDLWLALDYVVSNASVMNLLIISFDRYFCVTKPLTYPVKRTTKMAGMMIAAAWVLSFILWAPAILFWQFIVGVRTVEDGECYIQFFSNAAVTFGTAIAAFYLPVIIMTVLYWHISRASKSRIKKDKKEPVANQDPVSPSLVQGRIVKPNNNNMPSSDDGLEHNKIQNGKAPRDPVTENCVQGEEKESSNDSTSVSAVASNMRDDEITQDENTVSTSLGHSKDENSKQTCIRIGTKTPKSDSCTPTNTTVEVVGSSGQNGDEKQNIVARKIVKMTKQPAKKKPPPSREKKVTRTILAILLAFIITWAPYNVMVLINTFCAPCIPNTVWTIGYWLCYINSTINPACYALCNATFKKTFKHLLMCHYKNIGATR

human M2 receptor [2] = biological target: T1, human M2 receptor; type: cell-based; conditions: α >1 = positive cooperativity
[3] = biological target: T2, Human Recombinant M2 Muscarinic Acetylcholine Receptor (Homo sapiens, UniProt P08172); assay: Selectivity test, Ca2+ release (Eurofins GPCRProfiler): allosteric modulator assay, M2 (B-3.2); type: cell-based; conditions: for Selectivity (Shift EC50 M2/Shift EC50 M4): Table 2, quotient of allosteric shifts M2/M4; for Selectivity (Shift EC50 M2/Shift EC50 M1): Table 3, quotient of allosteric shifts M2/M1
T2 sequence (P08172 1-466): T1 sequence (P08172 1-466)
Procedure: B-3. Selectivity Test with Respect to Human Muscarinic Acetylcholine Receptors
Any potentially agonistic effect, or else positive allosteric effect, of the test substances on other human muscarinic acetylcholine receptors can be determined in a functional Ca^2+ release test (Eurofins; GPCRProfiler® Services in agonistic and allosteric mode for Mx Receptors; cat#: HTS600GPCR).
The substance test is conducted with a FLIPR^TETRA instrument (Molecular Devices).
After the agonism assay has ended, the assay plate is incubated at 25° C. for 7 min. After the incubation period, the positive allosteric modulator assay is initialized.
B-3.2. Allosteric Modulator Assay
In order to examine any positive or negative allosteric effect of the test substances on other human muscarinic acetylcholine receptors and the M2 receptor itself, every substance concentration is combined with an acetylcholine 8-point dose-response curve. Addition of agonist solution is again followed in turn by the measurement of cell fluorescence for a period of 180 sec. The shift in the acetylcholine dose-response curve (maximum shift in the EC50 of acetylcholine) is analysed and quantified by means of GraphPad PRISM (Sigmoidal dose-response (variable slope)−EC50). Finally, quotients of the allosteric shift for the M2 receptor and M4 receptor are formed, which function in turn as a measure of the respective selectivity.

anaesthetized rats = assay: Effects on the heart rate in anaesthetized rats (B-9); type: in vivo, rat; conditions: i.v. infusion via jugular vein over 5 min, dose not given, in some cases means of several determinations
Procedure: B-9. Effects of the Test Substances on the Heart Rate in Anaesthetized Rats
Male rats of the strain (WI) WU Br from the breeder Charles River are anaesthetized initially with a 4-5% isoflurane inhalation for approx. 3 min. Subsequently, anaesthesia is maintained using a 1.5% isoflurane inhalation. For this purpose, the anaesthetized animals are fixed on a heated operating plate. By means of visual inspection and between toe reflex, the depth of anaesthesia is checked.
For the application of the test substance, an i.v. route into the jugular vein is used. A caudal to cranial skin incision is then made longitudinally and both the cervical musculature and the salivary glands are severed. The right common carotid artery is exposed and blood supply is arrested both proximally and distally. Using microinstrumentation, a TIP catheter (1.2 F) is introduced into the vessel in order to measure the arterial pressure and the heart rate.
Initially, both parameters are monitored for 10 min in the basal state without substance addition. The substances to be investigated are dissolved in suitable solvent mixtures and subsequently administered at various dosages to a group of animals in each case via the jugular vein by an infusion pump over 5 min. A solvent-treated group is used as control under the same experimental conditions. The arterial blood pressure and heart rate with substance addition is determined for 20 min. The data are registered with the PowerLab system (AD instruments) and evaluated using the LabChart program (AD instruments).
The values determined in this manner for the percentage decrease in heart rate for individual working examples are given in Table 4 below (in some cases as means of a plurality of independent individual determinations): […]

[4] = test substance concentration 1 μM
[5] = test substance concentration 10 μM
[6] = Receptor activity EC50, M2-GIRK1/4 activation test, acetylcholine at EC20, allosteric potency, in some cases mean values from two or more determinations
[7] = shift in the acetylcholine dose-response curve (Allosteric EC50 shift, GraphPad PRISM)

| SMILES | pEC50 (human M2 receptor [1]; Receptor activity EC50, allosteric potency at EC20 acetylcholine, M2-GIRK1/4 reporter cells, in some cases mean of two or more determinations) | Emax (human M2 receptor [1]) [%] | Cooperativity (alpha factor) (human M2 receptor [2]; shift of acetylcholine dose-response curve (Allosteric EC50 shift)) | Selectivity (Shift EC50 M2/Shift EC50 M4) [3, 4] | Selectivity (Shift EC50 M2/Shift EC50 M4) [3, 5] | Selectivity (Shift EC50 M2/Shift EC50 M1) [3, 5] | Reduction in heart rate (%) (anaesthetized rats) | pEC50 (human M2 receptor [1]; [6]) | Cooperativity (alpha factor) (human M2 receptor [2]; [7]) |
| --- | --- | --- | --- | --- | --- | --- | --- | --- | --- |
| O=C(N[C@@H](C1CC1)C(F)(F)F)c1cn(-c2c(F)cc(F)cc2F)c2nc(N3C[C@@H](O)[C@H](O)C3)ccc2c1=O [Example 590, N-[(1S)-1-Cyclopropyl-2,2,2-trifluoroethyl]-7-[(3R,4R)-3,4-dihydroxypyrrolidin-1-yl]-4-oxo-1-(2,4,6-trifluorophenyl)-1,4-dihydro-1,8-naphthyridine-3-carboxamide] | 7.82 | 100 | 43 | 7 | 33 | 30 | 13 |  |  |
| O=C(N[C@@H](C1CC1)C(F)(F)F)c1cn(-c2c(F)cc(F)cc2F)c2nc(N3CCNC3=O)ccc2c1=O [Example 323, N-[(1 S)-1-Cyclopropyl-2,2,2-trifluoroethyl]-4-oxo-7-(2-oxoimidazolidin-1-yl)-1-(2,4,6-trifluorophenyl)-1,4-dihydro-1,8-naphthyridine-3-carboxamide] |  |  |  | 52 | 44 | 31 | 13 | 7.85 | 16 |
| CC[C@@H](NC(=O)c1cn(-c2ccc(F)cc2F)c2nc(N3C[C@@H](O)CC3=O)ccc2c1=O)C(F)(F)F [Example 175] |  | 97.3 |  | 29 | 83 | 287 | 6 | 7.16 | 33 |
